Experimental data as given in patent EP4711369A1, “1H-[1,2,3]TRIAZOLO[4,5-H]QUINAZOLINE COMPOUNDS AS PROTEIN KINASE INHIBITORS” (Chengdu Cynogen Bio-Pharmaceutical Technology Co., Ltd., priority 2023, dated 2024).

Experiments:
[1] = system: Human ovarian cancer OVCAR-3 cells; assay: OVCAR-3 tumor model; type: in vivo; conditions: female NOD-SCID mice, p.o. 5, 10 and 15 mg/kg twice daily, 22 days, Fig. 3
Procedure: Human ovarian cancer OVCAR-3 cells were cultured in RPMI 1640 medium containing 20% FBS at 37 °C and 5% CO2 in an incubator. Matrigel was mixed with serum-free RPMI 1640 medium at a ratio of 1:1, and then the mixture was used to resuspend the OVCAR-3 cancer cells at 2 × 10^7 cells/0.2 ml. Then, the cells were inoculated subcutaneously into the right rib area of female NOD-SCID mice. When the volume of tumors reached approximately 100-150 mm^3, the mice were randomly divided into groups for treatment, with six animals per group. The compound of example I-10 was prepared in a 20% aqueous solution of hydroxypropyl-gamma-cyclodextrin containing an equivalent amount of hydrochloric acid, and administered by oral gavage (p.o.) at dosages of 5, 10, and 15 (mg/kg) twice daily, 8 hours apart, for a total of 22 days. The PF06873600 treatment group was used as a positive control, and the untreated group was given solvent by oral gavage. The tumor volume was measured twice a week using a vernier caliper by measuring the long and short diameters of a tumor. The formula for calculating a tumor volume was: volume (mm^3) = (long diameter (mm) × short diameter (mm) × short diameter (mm)/2. The mice were weighed daily.
The therapeutic effect of a drug was evaluated using the tumor growth inhibition (TGI%).

[2] = target: CDK2/cyclin E (Homo sapiens, UniProt P24941); assay: Assay of kinase activity (ADP-Glo); type: biochemical; conditions: kinase inhibitory activity, read-out: CDK2/E1 IC50
In short: (§1)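 Kinase preincubated 10 min with compound in 50 mM Hepes, 10 mM MgCl2, 0.01% Brij35, 2 mM DTT, then substrate/ATP added for 60 min at 25 °C. ADP formed measured by ADP-Glo luminescence; IC50 by nonlinear concentration-response fitting.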

[3] = target: CDK4/cyclin D1 (Homo sapiens, UniProt P11802); assay: Assay of kinase activity (ADP-Glo); type: biochemical; conditions: kinase inhibitory activity
In short: as §1

CDK4/cyclin D1, sequence (P11802 whole entry, species assumed): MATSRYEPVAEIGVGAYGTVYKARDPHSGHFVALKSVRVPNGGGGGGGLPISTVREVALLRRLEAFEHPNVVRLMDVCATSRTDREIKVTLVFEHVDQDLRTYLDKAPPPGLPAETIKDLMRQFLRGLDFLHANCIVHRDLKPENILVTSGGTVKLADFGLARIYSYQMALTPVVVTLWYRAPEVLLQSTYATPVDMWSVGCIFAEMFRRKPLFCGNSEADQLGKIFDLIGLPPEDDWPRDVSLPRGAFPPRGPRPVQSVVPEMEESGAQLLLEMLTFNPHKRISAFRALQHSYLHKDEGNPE
CDK4/cyclin D1, sequence (P24385 whole entry partner, species assumed): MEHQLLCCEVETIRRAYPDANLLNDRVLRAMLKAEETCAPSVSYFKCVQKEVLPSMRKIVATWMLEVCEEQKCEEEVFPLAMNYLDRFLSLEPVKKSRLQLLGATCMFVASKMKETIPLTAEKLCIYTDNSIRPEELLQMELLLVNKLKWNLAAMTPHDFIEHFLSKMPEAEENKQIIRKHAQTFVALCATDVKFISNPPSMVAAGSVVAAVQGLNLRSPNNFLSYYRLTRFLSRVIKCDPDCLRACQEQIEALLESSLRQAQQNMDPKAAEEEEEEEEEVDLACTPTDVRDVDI

CC(C)n1nnc2ccc3cnc(Nc4ccc(C(=O)N5CC[C@H](N(C)C)C5)cc4)nc3c21 [Example I-10, (S)-(3-(Dimethylamino)pyrrolidin-1-yl)(4-((1-isopropyl-1H-[1,2,3]triazolo[4,5-H]quinazolin-8-yl)amino)phenyl)metha none]
growth inhibitory effect on the OVCAR-3 tumor model (TGI%) [1]: dose-dependent relationship
IC50 [2]: 0.1 nM
IC50 [3]: 0.6 nM
